Test results from patent US10670605B2, “Cysteine reactive probes and uses thereof” (The Scripps Research Institute, priority 2015, dated 2020).

What was measured:
Assay in all cases: Competitive isoTOP-ABPP, cell lysates;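 on isoTOP-ABPP reactivity profile ratio, P09211 C48: Heavy/light ratio DMSO over fragment-treated so higher means more cysteine engagement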
Format in all cases: binding
[1] = target: T1, PDIA6 C55 (Q15084) (Homo sapiens, UniProt Q15084); settings: for R value (DMSO/fragment): 250 μM, in vitro; for isoTOP-ABPP ratio Q15084_C55: 500 μM, invitro
T1 sequence (Q15084 20-440): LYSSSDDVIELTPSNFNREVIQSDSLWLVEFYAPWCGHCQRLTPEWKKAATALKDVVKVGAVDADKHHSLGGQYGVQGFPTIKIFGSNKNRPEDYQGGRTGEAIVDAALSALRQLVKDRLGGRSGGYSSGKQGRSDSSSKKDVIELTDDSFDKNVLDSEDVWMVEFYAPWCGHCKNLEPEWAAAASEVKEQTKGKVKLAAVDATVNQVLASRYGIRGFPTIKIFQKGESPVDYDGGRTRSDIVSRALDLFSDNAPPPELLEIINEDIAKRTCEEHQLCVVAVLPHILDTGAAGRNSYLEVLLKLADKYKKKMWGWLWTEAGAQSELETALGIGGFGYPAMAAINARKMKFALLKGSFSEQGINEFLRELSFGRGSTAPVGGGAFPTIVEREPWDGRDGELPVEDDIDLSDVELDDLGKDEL

[2] = target: GSTP1 C48 (P09211) (Homo sapiens, UniProt P09211); settings: for R value (DMSO/fragment): 250 μM, in vitro; for isoTOP-ABPP ratio, P09211_C48: 500 μM, invitro;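 on isoTOP-ABPP reactivity profile ratio, P09211 C48: Heavy/light ratio DMSO over fragment-treated so higher means more cysteine engagement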
Sequence of GSTP1 C48 (P09211) (P09211 whole entry, the tested form may be a part): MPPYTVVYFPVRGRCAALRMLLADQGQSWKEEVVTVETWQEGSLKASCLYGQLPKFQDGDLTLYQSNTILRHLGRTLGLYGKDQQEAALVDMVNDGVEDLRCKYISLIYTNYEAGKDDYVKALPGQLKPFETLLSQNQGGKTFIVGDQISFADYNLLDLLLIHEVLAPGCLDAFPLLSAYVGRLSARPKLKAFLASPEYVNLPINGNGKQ

[3] = target: IDH1 C269 (O75874) (Homo sapiens, UniProt O75874); settings: for R value (DMSO/fragment): 250 μM, in vitro; for isoTOP-ABPP ratio, O75874_C269: 500 μM, invitro; for isoTOP-ABPP ratio (reactivity profile), O75874_C269: 500 μm in-vitro ramos_231
Sequence of IDH1 C269 (O75874) (O75874 whole entry, the tested form may be a part): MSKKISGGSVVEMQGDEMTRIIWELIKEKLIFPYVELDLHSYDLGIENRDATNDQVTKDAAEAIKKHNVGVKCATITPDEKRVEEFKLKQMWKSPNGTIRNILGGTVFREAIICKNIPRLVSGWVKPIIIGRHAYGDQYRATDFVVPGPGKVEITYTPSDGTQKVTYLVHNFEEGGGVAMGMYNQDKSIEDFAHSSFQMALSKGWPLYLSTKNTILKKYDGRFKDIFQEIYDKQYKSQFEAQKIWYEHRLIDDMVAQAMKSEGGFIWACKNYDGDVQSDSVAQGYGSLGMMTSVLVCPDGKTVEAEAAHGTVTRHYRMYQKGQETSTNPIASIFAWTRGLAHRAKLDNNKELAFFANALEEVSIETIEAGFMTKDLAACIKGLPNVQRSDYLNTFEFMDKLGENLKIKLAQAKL

[4] = target: XPO1 C528 (O14980) (Homo sapiens, UniProt O14980); settings: for R value (DMSO/fragment): 250 μM, in vitro; for isoTOP-ABPP ratio O14980_C528: 500 μM, invitro
Sequence of XPO1 C528 (O14980) (O14980 whole entry, the tested form may be a part): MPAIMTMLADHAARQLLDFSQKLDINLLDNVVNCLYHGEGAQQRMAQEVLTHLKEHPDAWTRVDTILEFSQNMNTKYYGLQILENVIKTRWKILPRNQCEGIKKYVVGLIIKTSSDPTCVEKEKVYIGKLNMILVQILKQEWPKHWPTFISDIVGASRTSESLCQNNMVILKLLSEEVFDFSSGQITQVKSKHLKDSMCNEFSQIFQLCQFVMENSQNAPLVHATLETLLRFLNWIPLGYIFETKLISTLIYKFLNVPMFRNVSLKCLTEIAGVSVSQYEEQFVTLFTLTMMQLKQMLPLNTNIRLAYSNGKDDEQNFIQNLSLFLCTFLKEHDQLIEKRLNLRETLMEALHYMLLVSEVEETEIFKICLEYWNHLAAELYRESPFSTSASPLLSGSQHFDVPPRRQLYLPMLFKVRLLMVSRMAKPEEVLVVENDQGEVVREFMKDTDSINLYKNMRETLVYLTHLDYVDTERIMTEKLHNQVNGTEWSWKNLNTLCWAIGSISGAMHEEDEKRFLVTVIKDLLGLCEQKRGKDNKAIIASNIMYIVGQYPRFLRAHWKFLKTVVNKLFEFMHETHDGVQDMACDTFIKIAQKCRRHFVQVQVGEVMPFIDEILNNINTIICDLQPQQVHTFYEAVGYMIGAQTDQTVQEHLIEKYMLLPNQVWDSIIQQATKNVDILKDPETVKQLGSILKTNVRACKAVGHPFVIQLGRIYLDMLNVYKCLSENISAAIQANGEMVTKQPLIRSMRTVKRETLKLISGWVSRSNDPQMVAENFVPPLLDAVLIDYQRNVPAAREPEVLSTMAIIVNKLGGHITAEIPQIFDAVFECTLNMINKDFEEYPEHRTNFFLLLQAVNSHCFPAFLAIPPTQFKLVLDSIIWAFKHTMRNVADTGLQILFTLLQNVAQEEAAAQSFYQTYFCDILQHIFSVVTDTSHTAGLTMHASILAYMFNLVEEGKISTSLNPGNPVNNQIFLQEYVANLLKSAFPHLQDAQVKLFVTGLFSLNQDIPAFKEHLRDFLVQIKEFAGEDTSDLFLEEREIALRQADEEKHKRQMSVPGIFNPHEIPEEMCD

[5] = target: T2, MGMT C150 (P16455) (Homo sapiens, UniProt P16455); settings: for isoTOP-ABPP ratio, P16455_C150: 500 μM, invitro, ramos; for isoTOP-ABPP ratio (reactivity profile), P16455_C150: 500 μm in-vitro ramos
T2 sequence (P16455 1-207): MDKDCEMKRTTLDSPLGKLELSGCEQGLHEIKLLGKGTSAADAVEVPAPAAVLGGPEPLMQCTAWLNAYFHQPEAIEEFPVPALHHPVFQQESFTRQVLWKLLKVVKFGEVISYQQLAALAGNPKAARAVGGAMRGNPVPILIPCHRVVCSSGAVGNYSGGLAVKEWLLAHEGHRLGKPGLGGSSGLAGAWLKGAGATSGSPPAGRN

[6] = target: GNB2L1 C182 (P63244) (Homo sapiens, UniProt P63244); settings: for isoTOP-ABPP ratio, P63244_C182: 500 μM, invitro
[7] = target: T3, AIP C122 (O00170) (Homo sapiens, UniProt O00170); settings: for R value (DMSO/fragment): 250 μM, in vitro; for isoTOP-ABPP ratio, O00170_C122: 500 μM, invitro, ramos
T3 sequence (O00170 1-330): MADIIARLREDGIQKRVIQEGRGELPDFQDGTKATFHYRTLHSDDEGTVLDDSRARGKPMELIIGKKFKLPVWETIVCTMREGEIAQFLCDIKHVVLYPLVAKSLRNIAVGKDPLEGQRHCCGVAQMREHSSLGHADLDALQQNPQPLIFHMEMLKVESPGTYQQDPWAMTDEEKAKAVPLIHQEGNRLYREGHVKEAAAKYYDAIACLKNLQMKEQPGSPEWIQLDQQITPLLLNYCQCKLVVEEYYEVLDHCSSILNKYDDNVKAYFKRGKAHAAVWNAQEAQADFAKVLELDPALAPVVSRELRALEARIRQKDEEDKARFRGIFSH

[8] = target: DCUN1D1 C115 (Q96GG9) (Homo sapiens, UniProt Q96GG9)
Sequence of DCUN1D1 C115 (Q96GG9) (Q96GG9 whole entry): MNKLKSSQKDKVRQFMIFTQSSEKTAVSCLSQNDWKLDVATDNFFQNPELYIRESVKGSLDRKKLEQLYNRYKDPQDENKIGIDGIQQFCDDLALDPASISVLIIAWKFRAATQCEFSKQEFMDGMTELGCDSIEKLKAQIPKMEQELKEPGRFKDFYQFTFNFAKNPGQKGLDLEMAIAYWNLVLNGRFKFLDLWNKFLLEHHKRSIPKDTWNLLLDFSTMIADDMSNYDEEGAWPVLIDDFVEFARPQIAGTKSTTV

Structure (SMILES) | isoTOP-ABPP ratio Q15084_C55 [1]; 231 | isoTOP-ABPP ratio Q15084_C55 ([1]; ramos) | isoTOP-ABPP ratio O14980_C528 [4]; 231 | isoTOP-ABPP ratio, P16455_C150 [5] | isoTOP-ABPP ratio, P09211_C48 [2]; 231 | isoTOP-ABPP ratio, P09211_C48 ([2]; ramos) | isoTOP-ABPP ratio, P63244_C182 [6]; 231 | isoTOP-ABPP ratio, P63244_C182 ([6]; ramos) | isoTOP-ABPP ratio (reactivity profile), Q15084_C55 ([1]; 500 μm in-vitro ramos_231) | isoTOP-ABPP ratio (reactivity profile), P09211_C48 ([2]; 500 μm in-vitro ramos_231) | isoTOP-ABPP ratio (reactivity profile), P63244_C182 ([6]; 500 μm in-vitro ramos_231) | isoTOP-ABPP ratio (reactivity profile), O75874_C269 [3] | isoTOP-ABPP ratio (reactivity profile), Q15084_C55 ([1]; 500 μm in-vitro ramos) | isoTOP-ABPP ratio (reactivity profile), P16455_C150 [5] | isoTOP-ABPP ratio (reactivity profile), P09211_C48 ([2]; 500 μm in-vitro ramos) | isoTOP-ABPP ratio (reactivity profile), P63244_C182 ([6]; 500 μm in-vitro ramos) | isoTOP-ABPP ratio (reactivity profile), O00170_C122 ([7]; 500 μm in-vitro ramos) | other results
O=C(CCl)NC1C(O)OC(CO)C(O)C1O (mixture of isomers) [compound 44] |  |  |  |  |  |  |  |  |  |  |  |  |  |  |  |  |  | isoTOP-ABPP reactivity profile ratio, Q15084_C55 ([1]; 500 μm, in-vitro_ramos_231): 1.0; isoTOP-ABPP reactivity profile ratio, P09211_C48 ([2]; 500 μm, in-vitro_ramos_231): 0.9; isoTOP-ABPP reactivity profile ratio, O75874_C269 ([3]; 500 μm, in-vitro_ramos_231): 0.8
COc1ccc(C2CC(c3cccs3)=NN2C(=O)CCl)cc1 (stereo not shown) [compound 4] |  |  |  |  |  |  |  |  |  |  |  |  |  |  |  |  |  | R value (DMSO/fragment) ([1]; MDA-MB-231): 1.3; R value (DMSO/fragment) ([1]; Ramos): 1.2; R value (DMSO/fragment) ([4]; MDA-MB-231): 0.9; R value (DMSO/fragment) ([4]; Ramos): 1.1; R value (DMSO/fragment) ([5]; 250 μM, in vitro, Ramos): 6.9; R value (DMSO/fragment) ([2]; MDA-MB-231): 3.2; R value (DMSO/fragment) ([2]; Ramos): 0.5; R value (DMSO/fragment) ([6]; 250 μM, in vitro, MDA-MB-231): 0.9; R value (DMSO/fragment) ([3]; MDA-MB-231): 1.6; R value (DMSO/fragment) ([3]; Ramos): 0.6; R value (DMSO/fragment) ([7]; MDA-MB-231): 2.5; R value (DMSO/fragment) ([7]; Ramos): 0.3
C=CC(=O)N(c1ccccc1)c1ccc(Br)cc1 [compound 5] | 0.9 | 1.1 | 20.0 | 9.6 | 2.2 | 2.4 | 1.5 | 1.4 |  |  |  |  |  |  |  |  |  | isoTOP-ABPP ratio, O75874_C269 ([3]; ramos): 0.8
CNS(=O)(=O)C=Cc1ccc2c(ccn2Cc2ccccc2)c1 [compound 6] | 1.0 |  | 0.7 |  | 1.2 |  | 1.5 |  |  |  |  |  |  |  |  |  |  | 
O=C(CCl)NC(=O)NC12CC3CC(CC(C3)C1)C2 [compound 12] | 3.7 | 3.1 | 1.1 | 20.0 | 2.9 | 1.1 | 0.9 | 0.8 |  |  |  |  |  |  |  |  |  | isoTOP-ABPP ratio, Q96GG9_C115 ([8]; 500 μM, invitro, ramos): 0.6; isoTOP-ABPP ratio, O00170_C122 [7]: 1.3
O=C(CCl)NCCc1c[nH]c2ccccc12 [compound 13] | 1.9 | 1.1 |  | 4.2 | 1.5 | 1.2 | 1.4 | 0.8 |  |  |  |  |  |  |  |  |  | isoTOP-ABPP ratio O14980_C528 ([4]; ramos): 0.5; isoTOP-ABPP ratio, O75874_C269 [3]; 231: 2.7; isoTOP-ABPP ratio, O00170_C122 [7]: 0.9
CC(Cl)C(=O)Nc1cc(C(F)(F)F)cc(C(F)(F)F)c1 (stereo not shown) [compound 25] |  |  |  |  |  |  |  |  | 1.0 | 1.8 | 1.2 | 1.0 |  |  |  |  |  | 
O=C(/C=C/c1ccccc1)Nc1cc(C(F)(F)F)cc(C(F)(F)F)c1 [compound 26] |  |  |  |  |  |  |  |  |  |  |  |  | 0.9 | 0.9 | 0.9 | 1.0 | 0.9 | isoTOP-ABPP ratio (reactivity profile), O14980_C528 ([4]; 500 μm in-vitro ramos): 0.9; isoTOP-ABPP ratio (reactivity profile), Q96GG9_C115 ([8]; 500 μm in-vitro ramos): 0.9
COc1ccccc1OCCNC(=O)CCl [compound 28] |  |  |  |  |  |  |  |  | 1.1 | 1.3 | 1.0 | 1.1 | 1.5 | 1.7 | 1.5 | 1.1 | 1.2 | isoTOP-ABPP ratio (reactivity profile), O00170_C122 ([7]; 500 μm in-vitro ramos_231): 0.9
O=C(CCl)N1CCN(CC(=O)N2CCOCC2)CC1 [compound 29] |  |  |  |  |  |  |  |  | 1.0 | 1.0 | 1.3 | 0.8 | 1.3 | 1.3 | 0.4 | 1.2 | 1.3 | isoTOP-ABPP ratio (reactivity profile), O14980_C528 ([4]; 500 μm in-vitro ramos_231): 1.0
